Results as given in patent US11352350B2, “IRAK degraders and uses thereof” (Kymera Therapeutics, Inc., priority 2018, dated 2022).
Like-named read-outs stand apart in the source and are kept apart here.

Experiments:
IRAK4 [1] = molecular target: T1, IRAK4 (Homo sapiens (Human), UniProt Q9NWZ3); assay: hPBMC IRAK4 degradation flow assay; type: cell-based; details: hPBMC monocyte
Protocol: hPBMC IRAK4 degradation flow assay. Frozen PBMCs were thawed into RPMI with 10% FBS and allowed to recover. On the same day as thawed, PBMCs were plated in 96 well plate, 90 uL per well. Compound plates were prepared and a 10 point, 5-fold dilution was performed with a final DMSO concentration of 0.1%. Compound 10 μL per well was added, sealed and incubated at 37° C., 5% C02 for 20 hours (for 4 hour treatment, compounds were prepared and added the following day). […] Cells were spun down and washed two times with PBS/0.5% BSA, aspirated to pellet and placed into −80° C. freezer until further processing for flow. On the flow run day, PBMC plates were thawed and samples were transferred to PCR plates. The pre-perm staining cocktail (CD3 Ax488/CD8 BUV805/CD14 BUV395/CD16/56 BV711/CD19 BV785) was added to samples and incubated for 30 minutes at room temperature. Samples were washed two times and permeabilized with methanol for 10 minutes at 4° C. […] Samples were washed two times with PBS/BSA and run on a BD LSRFortessa. Mononuclear cells are gated by SSCH/FSCH and single cells. Monocytes are then gated through CD14 positive gate and lymphocytes are gated through CD14 negative gate. To determine absolute DC50s and max degradation values, MFI values were normalized to DMSO max and 20 hour 10 μM min control. Twenty hour dose curves were calculated using a 4 parameter logistic regression curve fit, no constraints (Top doses were removed if hook effects were observed and the bottom was constrained to 0).

IL-6 = IL-6 secretion in hPBMC using R848 stimulation; type: cell-based, human; details: Homo sapiens, 20 h
IRAK4 [2] = molecular target: T1, IRAK4; assay: IRAK4 MSD degradation in OCI-LY10; type: cell-based
Summary of the method: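 Remaining IRAK4 quantified by electrochemiluminescent MSD sandwich assay with two anti-IRAK4 antibodies. Compounds were dosed as 8 concentrations in 1:3 steps from a 1 to 10 μM final top on OCI-LY10 cells, incubated 4 to 24 h at 37° C. under 5% CO2. DC50 fitted with a three-parameter logistic curve.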

OCI-LY10 = assay: CTG Cell Viability Assay - OCI-LY10; type: cell-based, human; details: Homo sapiens, OCI-LY10, 4 days, read-out: CTG Cell Viability Assay - OCI-LY10: Average external-IC50
Summary of the method: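 Viability read by CellTiter-Glo luminescence after 4 days at 37° C under 5% CO2 with compound (top 10 μM final, 1:3 steps, 9 doses, DMSO 0.2%). Three-parameter logistic fit gave IC50.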

[3] = 20 hr, flow assay, read-out: IRAK4 degradation in hPBMC monocyte at 20 hr: Average external Abs DC50
[4] = OCI-LY10, 4 hrs, read-out: IRAK4 MSD degradation in OCI-LY10 at 4 hrs: DC50
[5] = 20 hrs, read-out: IRAK4 degradation in hPBMC monocyte: DC50
[6] = OCI-LY10, 4 hrs, MSD, read-out: IRAK4 MSD degradation in OCI-LY10 at 4 hrs: Average external-Abs DC50
[7] = OCI-LY10, 24 hrs, MSD, read-out: IRAK4 MSD degradation in OCI-LY10 at 24 hrs: Average external-Abs DC50

T1 sequence (Q9NWZ3 whole entry): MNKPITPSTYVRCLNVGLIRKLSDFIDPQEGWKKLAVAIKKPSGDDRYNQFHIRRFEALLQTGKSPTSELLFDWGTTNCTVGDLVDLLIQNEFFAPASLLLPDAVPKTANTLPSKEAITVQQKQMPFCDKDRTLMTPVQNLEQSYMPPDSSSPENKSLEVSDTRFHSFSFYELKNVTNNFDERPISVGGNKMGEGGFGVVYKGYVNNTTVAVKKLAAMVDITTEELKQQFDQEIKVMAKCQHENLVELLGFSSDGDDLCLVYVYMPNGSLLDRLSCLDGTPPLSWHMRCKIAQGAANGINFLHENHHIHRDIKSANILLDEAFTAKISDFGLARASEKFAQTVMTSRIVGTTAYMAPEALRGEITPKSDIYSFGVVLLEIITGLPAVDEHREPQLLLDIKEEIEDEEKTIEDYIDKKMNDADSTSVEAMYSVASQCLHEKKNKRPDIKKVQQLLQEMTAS

SMILES | DC50 (IRAK4 [1]; [3]) [µM] | DC50 (IRAK4 [2]; [4]) [µM] | DC50 (IRAK4 [1]; [5]) [µM] | IC50 (OCI-LY10; OCI-Ly10, 96 h) [µM] | also measured
Cn1c(=O)n(C2CCC(=O)NC2=O)c2ccc(CCCN3CC4(CCN(C(=O)c5ccc(C6N=C(NC(=O)c7cnn8ccc(N9C[C@H]%10C[C@@H]9CO%10)nc78)C(C(F)F)=N6)cc5)CC4)C3)cc21 (some centres unmarked) [I-433] | < 0.01 | – | – | – | IC50 (IL-6; hPBMC, R848 as stim, t = 20 h): < 0.001 µM
Cn1c(=O)n(C2CCC(=O)NC2=O)c2cccc(CCCOC[C@H]3CN(C[C@H]4CC[C@H](n5cc(NC(=O)c6cnn7ccc(N8CCOCC8)nc67)c(C(F)F)n5)CC4)CCO3)c21 (some centres unmarked) [I-430] | < 0.01 | – | – | – | IC50 (IL-6; hPBMC, R848 as stim, t = 20 h): 0.001 to 0.01 µM
Cc1ccc(-c2nn([C@H]3CC[C@H](CN4CCC(OCCCc5cccc6c5n(C)c(=O)n6C5CCC(=O)NC5=O)CC4)CC3)cc2NC(=O)c2cnn3ccc(N4C[C@H]5C[C@@H]4CO5)nc23)nc1 (some centres unmarked) [I-484] | – | 0.1 to 1 | 0.1 to 1 | > 1 | –
O=C1CCC(n2c3cccc(CCCN4CC5(CCN(C(=O)[C@H]6CC[C@H](n7cc(NC(=O)c8cnn9ccc(N%10C[C@H]%11C[C@@H]%10CO%11)nc89)c(C(F)F)n7)CC6)CC5)C4)c3c3cccnc32)C(=O)N1 (some centres unmarked) [I-445] | – | 0.01 to 0.1 | < 0.01 | > 1 | –
Cn1c(=O)n(C2CCC(=O)NC2=O)c2cccc(CCCOC3CCN(CCCCn4ncc(NC(=O)c5cnn6ccc(N7CCOCC7)nc56)c4C(F)F)CC3)c21 (centres unmarked) [I-488] | – | 0.1 to 1 | 0.1 to 1 | > 1 | –
Cn1c(=O)n(C2CCC(=O)NC2=O)c2cccc(CN3CCC4(CC3)CCN(C(=O)c3ccc(C5N=C(NC(=O)c6cnn7ccc(N8C[C@H]9C[C@@H]8CO9)nc67)C(C(F)F)=N5)cc3)CC4)c21 (some centres unmarked) [I-432] | < 0.01 | – | – | – | IC50 (IL-6; hPBMC, R848 as stim, t = 20 h): 0.001 to 0.01 µM
Cn1c(=O)n(C2CCC(=O)NC2=O)c2cccc(CCCN3CCOC4(CCN(C(=O)[C@H]5CC[C@H](n6cc(NC(=O)c7cnn8ccc(N9C[C@H]%10C[C@@H]9CO%10)nc78)c(C(F)F)n6)CC5)CC4)C3)c21 (some centres unmarked) [I-431] | < 0.01 | – | – | – | IC50 (IL-6; hPBMC, R848 as stim, t = 20 h): < 0.001 µM
CN(C[C@H]1CC[C@H](n2cc3cc(NC(=O)c4cccc(C(F)(F)F)n4)c(C(C)(C)O)cc3n2)CC1)C1CCC2(CC1)CC(CNc1cccc3c1C(=O)N(C1CCC(=O)NC1=O)C3=O)C2 (some centres unmarked) [I-331] | 0.01 to 0.1 | – | – | < 0.05 | DC50 (IRAK4 [2]; [6]): 0.01 to 0.1 µM; DC50 (IRAK4 [2]; [7]): < 0.01 µM
Cn1c(=O)n(C2CCC(=O)NC2=O)c2cccc(CCCN3CC4CN(C(=O)[C@H]5CC[C@H](n6cc(NC(=O)c7cnn8ccc(N9C[C@H]%10C[C@@H]9CO%10)nc78)c(C(F)F)n6)CC5)CC4C3)c21 (some centres unmarked) [I-449] | – | < 0.01 | < 0.01 | > 1 | –
CC(C)(O)c1cc2nn([C@H]3CC[C@H](CN4CCC5(CC4)CC(Nc4cccc6c4C(=O)N(C4CCC(=O)NC4=O)C6=O)C5)CC3)cc2cc1NC(=O)c1cccc(C(F)(F)F)n1 (some centres unmarked) [I-326] | < 0.01 | – | – | < 0.05 | DC50 (IRAK4 [2]; [6]): < 0.01 µM; DC50 (IRAK4 [2]; [7]): < 0.01 µM
Cn1c(=O)n(C2CCC(=O)NC2=O)c2ccc(C#CCOC3CCN(C[C@H]4CC[C@H](n5cc(NC(=O)c6cnn7ccc(N8C[C@H]9C[C@@H]8CO9)nc67)c(C(F)F)n5)CC4)CC3)cc21 (some centres unmarked) [I-483] | – | – | – | – | IC50 (OCI-LY10; 96 h): > 1 µM; IC50 (IL-6; read-out: IL-6 Secretion in hPBMC, R848 as stim, t = 20 h: IC50): 0.001 to 0.01 µM
C[C@H](CCc1cccc2c1n(C)c(=O)n2C1CCC(=O)NC1=O)OC1CCN(C[C@H]2CC[C@H](n3cc(NC(=O)c4cnn5ccc(N6C[C@H]7C[C@@H]6CO7)nc45)c(C(F)F)n3)CC2)CC1 (some centres unmarked) [I-557] | – | < 0.01 | < 0.01 | > 1 | –
Cn1c(=O)n(C2CCC(=O)NC2=O)c2cccc(CCCC3CCN(Cc4ccc(C5N=C(NC(=O)c6cnn7ccc(N8C[C@H]9C[C@@H]8CO9)nc67)C(C(F)F)=N5)cc4)CC3)c21 (some centres unmarked) [I-428] | < 0.01 | – | – | – | IC50 (IL-6; hPBMC, R848 as stim, t = 20 h): 0.001 to 0.01 µM
CN(CCCO[C@H]1C[C@H](Nc2cccc3c2C(=O)N(C2CCC(=O)NC2=O)C3=O)C1)C[C@H]1CC[C@H](n2cc(NC(=O)c3cnn4ccc(N5C[C@H]6C[C@@H]5CO6)nc34)c(C(F)F)n2)CC1 (some centres unmarked) [I-444] | – | 0.1 to 1 | < 0.01 | < 0.05 | DC50 (IRAK4 [2]; OCI-LY10, 24 hrs, read-out: IRAK4 MSD degradation in OCI-LY10 at 24 hrs: DC50): < 0.01 µM
Cn1c(=O)n(C2CCC(=O)NC2=O)c2cccc(CC3CCN(c4ccc(CN5CCC(n6cc(NC(=O)c7cnn8ccc(N9C[C@H]%10C[C@@H]9CO%10)nc78)c(C(F)F)n6)CC5)cc4)CC3)c21 (some centres unmarked) [I-520] | – | 0.01 to 0.1 | < 0.01 | > 1 | –
Cn1c(=O)n(C2CCC(=O)NC2=O)c2cccc(CCCN3CCOC4(CCN(C[C@H]5CC[C@H](n6cc(NC(=O)c7cnn8ccc(N9C[C@H]%10C[C@@H]9CO%10)nc78)c(C(F)F)n6)CC5)CC4)C3)c21 (some centres unmarked) [I-434] | < 0.01 | – | – | – | IC50 (IL-6; hPBMC, R848 as stim, t = 20 h): < 0.001 µM
Cn1c(=O)n(C2CCC(=O)NC2=O)c2ccc(C#CCCCNC[C@H]3CC[C@H](n4cc(NC(=O)c5cnn6ccc(N7C[C@H]8C[C@@H]7CO8)nc56)c(C(F)F)n4)CC3)cc21 (stereo in doubt) [I-512, N-[3-(difluoromethyl)-1-[4-[[5-[1-(2,6-dioxo-3-piperidyl)-3-methyl-2-oxo-benzimidazol-5-yl]pent-4-ynylamino]methyl]cyclohexyl]pyrazol-4-yl]-5-(2-oxa-5-azabicyclo[2.2.1]heptan-5-yl)pyrazolo[1,5-a]pyrimidine-3-carboxamide] | – | > 1 | 0.1 to 1 | > 1 | –
Cn1c(=O)n(C2CCC(=O)NC2=O)c2cccc(CCCN3CC4(CCN(C(=O)[C@H]5CC[C@H](n6cc(NC(=O)c7cnn8ccc(N9C[C@H]%10C[C@@H]9CO%10)nc78)c(C(F)F)n6)CC5)CC4)C3)c21 (some centres unmarked) [I-407] | < 0.01 | – | – | > 1 | DC50 (IRAK4 [2]; [6]): < 0.01 µM
O=C1CCC(N2C(=O)c3cccc(NCCCOCC4CCN(C[C@H]5CC[C@H](n6cc7cc(NC(=O)c8cccc(C(F)(F)F)n8)c(C(F)F)cc7n6)CC5)CC4)c3C2=O)C(=O)N1 (some centres unmarked) [I-327] | 0.01 to 0.1 | – | – | 0.5 to 1 | DC50 (IRAK4 [2]; [6]): 0.01 to 0.1 µM; DC50 (IRAK4 [2]; [7]): 0.01 to 0.1 µM
Cn1c(=O)n(C2CCC(=O)NC2=O)c2cccc(C#CCCCOC[C@H]3CC[C@H](n4cc(NC(=O)c5cnn6ccc(N7C[C@H]8C[C@@H]7CO8)nc56)c(C(F)F)n4)CC3)c21 (some centres unmarked) [I-446] | – | – | – | – | IC50 (IL-6; hPBMC, R848 as stim, t = 20 h): 0.01 to 0.1 µM
CC(C)(O)c1cc2nn([C@H]3CC[C@H](CN4CCC(COCCCNc5cccc6c5C(=O)N(C5CCC(=O)NC5=O)C6=O)CC4)CC3)cc2cc1NC(=O)c1cccc(C(F)(F)F)n1 (some centres unmarked) [I-376] | < 0.01 | – | – | 0.1 to 0.5 | DC50 (IRAK4 [2]; [6]): 0.01 to 0.1 µM; DC50 (IRAK4 [2]; [7]): 0.01 to 0.1 µM
O=C1CCC(N2C(=O)c3cccc(NCC4CCN(C[C@H]5CC[C@H](n6cc(NC(=O)c7cnn8ccc(N9C[C@H]%10CC9CO%10)nc78)c(C(F)F)n6)CC5)CC4)c3C2=O)C(=O)N1 (some centres unmarked) [I-442] | – | 0.1 to 1 | 0.1 to 1 | < 0.05 | –
Cn1c(=O)n(C2CCC(=O)NC2=O)c2cccc(C#CCOC3CCN(C[C@H]4CC[C@H](n5cc(NC(=O)c6cnn7ccc(N8CCCOCC8)nc67)c(C(F)F)n5)CC4)CC3)c21 (some centres unmarked) [I-522] | – | < 0.01 | < 0.01 | 0.1 to 0.5 | –
Cn1c(=O)n(C2CCC(=O)NC2=O)c2cccc(CCCN3CC4(CCN(C(=O)[C@H]5CC[C@H](n6cc(NC(=O)c7cnn8cccnc78)c(N7CCOCC7)n6)CC5)CC4)C3)c21 (some centres unmarked) [I-494] | – | 0.1 to 1 | 0.1 to 1 | > 1 | –
